We go through three molecules from patent US11795461B2, “Compositions and methods for treating beta-hemoglobinopathies” (CSL Behring Gene Therapy, Inc., priority 2017, dated 2023).

Holding throughout (type): cell-based, human
The subject of series [1] is HPRT. Kind of series: CRISPR knock-in of Pol-II-driven shRNA into CCR5 region of K562 cells, 6-TG selection, HPRT staining. The following applies: for obvious cytotoxicity in K562 cells: knock-in. The text has this:
It has been well known that some polymerase III-dependent short-hairpin RNAs have overexpression issues and can induce acute cytotoxicity. […] This is an important concern when considering the use of RNA interference (RNAi) as a potential therapeutic approach, especially in stem cell gene therapy. Here, polymerase II was used as alternative promoter to express microRNA so as to effectuate knockdown of the expression of HPRT. A CRISPR/Cas9 gene editing approach was utilized, and a Cas9 with a single guide RNA (Cas9 RNP) targeting CCR5, together with a single-stranded DNA oligonucleotide donor (ssODN) encoding an HPRT Pol II driven shRNA, was used to enable efficient replacement of the CCR5 locus with a functional HPRT miRNA. […] For knock-in of sh211 and sh734, the obvious cytotoxicity in K562 cells was not observed.

The next series has as its system K562 cells. The series can be described thus: in vitro 6TG selection and stability of transduced K562 cells (VCN, % GFP+). The settings on record: 6TG selected. The protocol:
4) 2×10^5 cells of control K562, 6 samples transduced at dilution factor 32 and 6 samples transduced at dilution factor 1 are reseeded in 6-well plate with 4 mL of RPMI without and with 300 nM of 6-thioguanine, respectively. 2.5×10^6 cells of 6 samples transduced at dilution factor 1 are made through mixing transduced and untransduced cells at ratio of 1:3. Two cell pellets (1×10^6 cells each) for DNA & RNA analysis for these 6 samples will be frozen down. The medium is refreshed every 3-4 days. K562 transduced with TL20cw-7SK/sh734-GFP (dilution factor at 256 and 8) will be included as positive controls.
5) Two cell pellets (1×10^6 cells each) for DNA & RNA analysis for 13 samples including control K562 will be frozen down at day 7/14/21 or even 28(MY). Copy numbers of GbG and sh734 are analyzed. The samples at day 21/28 are optional if the copy numbers of all samples are higher than 95% of expected value for day 14. […]
K562 cells were transduced with sh734 for 21 days before initiating 6TG treatment for 14 days (shaded areas). With reference to FIGS. 49A through 49G, vector copy number (VCN) was determined every two weeks from genomic DNA by multiplex RU5 qPCR and absolute quantitation from a standard curve using lentiviral vector (HIV-1-based LTR R-U5) target and human Apolipoprotein B (ApoB) reference sequences. […]

Series [2] has as its system HPRT. Kind of series: HPRT knockdown in transduced K562 cells (qRT-PCR). The settings on record: after 6TG treatment. The protocol:
With reference to FIG. 50, K562 cells were transduced with TL20c-rGbGM-7SK/sh734 or TL20c GbG^M21 days before initiating 6TG treatment. RNA was isolated and qRT-PCRT was performed to determine the number of copies of sh734 relative to RNU38B and normalized to VCN (relative expression/VCN). Relative expression levels of sh734 and HPRT were determined every two weeks post-transduction. The graph illustrated sh734 plotted on the left Y-axis and the percent of HPRT knockdown related to mock transduced cells (HPRT/mock×100) and normalized to VCN plotted on the right Y axis.
K562 cells were transduced with the sh7-GFP mono-vector reporter construct or CAL-H for 21 days before initiating 6TG. RNA was isolated, and qRT-PCR performed to determine the number of copies of sh734 relative to RNU38B and normalized to VCN (relative expression/VCN). FIGS. 51A and 51B illustrates the percent HPRT knockdown relative to mock transduced cells (HPRT/mock×100) normalized to VCN is plotted on the right Y axis. […] 14 days after selection, HPRT levels became undetectable in transduced cultures. 6TG selected K562 cells continued to grow and express sh734 after 3-months in culture (data not shown). […] At day 21, K562 cultures transduced with the sh7-GFP reporter construct were 35% GFP+ and increased to 88% GFP+ cells by day 42 following 6TG treatment.
Background: Quantitative PCR measures a nucleic acid by following its amplification.

“sh211: shRNA targeting an HPRT gene, SEQ ID NO: 28 (GGTTATGACCTTGATTTATACCTGACCCATATTAAATCAAGGTCATAACCTTTTT)”: in the series on HPRT [1], the “obvious cytotoxicity in K562 cells” value is on record as “not observed”.
Take “sh734: shRNA targeting an HPRT gene, SEQ ID NO: 30 (AGGATATGCCCTTGACTATTTGTCCGACATAGTCAAGGGCATATCCTTTTTT)”: in the series with K562 cells, the “duration of sh734 expression and function in culture” value was “greater than 3 months”. Moreover, in the series with HPRT [2], the HPRT levels result is given as “less than 10 % of untreated cells”. In the series on HPRT [1], the “obvious cytotoxicity in K562 cells” value was “not observed”.

B1: sh211-3G: sh211 embedded in the miRNA-3G backbone, SEQ ID NO: 25; Pol-II (EF1a) driven (nucleic acid)
chain: CCGGATCAACGCCCTAGGTTTATGTTTGGATGAACTGACATACGCGTATCCGTCTTTTAAATCAAGGTCATAACCGTAGTGAAATATATATTAAACAGGTTATGACCTTGATTTAAAATACGGTAACGCGGAATTCGCAACTATTTTATCAATTTTTTGCGTCGAC
modifications: Synthetic miRNA211-3G
notes: Pol-II (EF1a) driven
For B1, the “HPRT levels (HPRT staining)” value in the series on HPRT [1] (K562 cells after three weeks of 6-TG selection, control 99%) is given as 12%.
